Data published in publication PMC10321483 (Chemical Science, 2023).
Several values for one entry are separate records, joined by “and”; a condition that tells them apart may be missing. Equal entries are not always repeated. Where two headings read alike, the source gives them in different places.

Assays:
BlaC = target: T1, BlaC (Mycobacterium tuberculosis, UniProt P9WKD3); assay: BlaC fluorogenic inhibition assay with FC5 (dose-response); assay type: biochemical
T1 construct: made in house; host or cells: E. coli
Procedure: Two types of controls were used. […] In control 2, the BlaC mixture was substituted with the assay buffer. This mixture was incubated for 30 minutes at room temperature without shaking. […] Data were analysed using ActivityBase (IDBS).

LdtMt2 [1] = target: T2, LdtMt2 (Mycobacterium tuberculosis, UniProt I6Y9J2); assay: biochemical; assay type: biochemical; parameters: made in house; host or cells: E. coli
LdtMt2 [2] = target: T2, LdtMt2; assay: biochemical; assay type: binding; parameters: made in house; host or cells: E. coli
Procedure: LdtMt2 (5 μM) was incubated with the inhibitor (500 μM) in assay buffer (50 mM tris pH 7.5) for 30 minutes at room temperature in 96-well white PCR plates (25 μL final volume, Starlab). SYPRO Orange (final concentration 6×, according to manufacturer's definition, Invitrogen) was then added and the plate was sealed using a transparent plastic film (Polyolefin StarSeal, Starlab). Fluorescence was monitored (with λex = 492 nm and λem = 610 nm) using a CFX96 Touch Real-Time PCR Detection System (Bio-Rad), while the temperature was increased from 20 to 95 °C in increments of 0.2 °C. Melting temperatures (Tms) were determined using the CFX Maestro Software (Bio-Rad).

[3] = Table S3 tool compounds, 10 min incubation, 2.5 nM BlaC, 2.5 µM FC5, n=4, read-out: pIC50 BlaC (mean ± SD) (converted)
[4] = Table S4 HTS validation, 30 minutes inhibitor pre-incubation, n=8, read-out: pIC50 BlaC (mean ± SD) (converted)
[5] = Table S4 HTS validation, 30 minutes inhibitor pre-incubation, n=6, read-out: pIC50 LdtMt2 (mean ± SD) (converted)
[6] = Table S5 HTS hits, 30 minute inhibitor pre-incubation, two independent repeats
[7] = Table S3 tool compounds, 10 min incubation, 2.5 nM BlaC, 2.5 µM FC5, n=4
[8] = Table S4 HTS validation, 30 minutes inhibitor pre-incubation, n=6

T1 sequence (P9WKD3 35-307): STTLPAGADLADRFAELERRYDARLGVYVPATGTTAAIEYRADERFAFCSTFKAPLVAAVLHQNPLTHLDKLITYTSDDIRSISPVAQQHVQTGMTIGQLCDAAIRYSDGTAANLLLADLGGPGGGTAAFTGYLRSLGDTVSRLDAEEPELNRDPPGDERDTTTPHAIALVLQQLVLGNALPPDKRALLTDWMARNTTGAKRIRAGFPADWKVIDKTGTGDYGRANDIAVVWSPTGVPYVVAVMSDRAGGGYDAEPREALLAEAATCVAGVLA
T2 sequence (I6Y9J2 56-408): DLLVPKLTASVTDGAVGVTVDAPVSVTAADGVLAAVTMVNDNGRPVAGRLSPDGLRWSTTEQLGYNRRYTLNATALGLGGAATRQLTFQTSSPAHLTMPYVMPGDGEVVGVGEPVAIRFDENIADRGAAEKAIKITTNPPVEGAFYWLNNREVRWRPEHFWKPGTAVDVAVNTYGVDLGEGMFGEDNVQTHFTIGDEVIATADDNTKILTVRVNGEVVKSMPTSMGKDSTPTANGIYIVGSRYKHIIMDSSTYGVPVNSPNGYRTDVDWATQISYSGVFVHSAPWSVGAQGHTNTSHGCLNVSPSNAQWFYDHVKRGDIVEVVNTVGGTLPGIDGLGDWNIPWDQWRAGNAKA

Structure (SMILES) | IC50 (BlaC; [3]) [nM] | IC50 (BlaC; [4]) [nM] | IC50 (LdtMt2 [1]; [5]) [µM] | IC50 (LdtMt2 [1]; pIC50 LdtMt2 (mean ± SD)) | other results
C[C@@H](O)[C@H]1C(=O)N2C(C(=O)O)=C(S[C@@H]3CN[C@H](C(=O)Nc4cccc(C(=O)O)c4)C3)[C@H](C)[C@H]12 [Ertapenem, reference compound] | 178 | 67.6 | 0.776 | 1.58 µM | –
O=C1C=CC(=O)N1 [Maleimide, reference compound] | – | – | – | 3.98 µM and 2.24 µM | IC50 (BlaC; pIC50 BlaC (mean ± SD), Table S3 tool compounds, 10 min incubation, 2.5 nM BlaC, 2.5 µM FC5, n=4): > 100000 nM
CC1(C)S[C@@H]2[C@H](NC(=O)C(C(=O)O)c3ccccc3)C(=O)N2[C@H]1C(=O)O (some centres unmarked) [Carbenicillin, reference compound] | > 100000 | – | – | > 100 µM | –
N#Cn1c(-c2ccncc2)nc2ccc(-c3cccnc3)cc21 [Compound 35] | – | – | – | – | LE (ligand efficiency) (LdtMt2 [1]): 0.49; ΔTm: difference in melting point of LdtMt2 relative to unreacted LdtMt2 (43.8 °C) (LdtMt2 [2]): -0.9; Tm: melting point of LdtMt2 after pre-incubation with the compound (LdtMt2 [2]; pH 7.5, in °C (unit assumed)): 42.9 ± 0.34
N#Cn1ccnc1 [Compound 41, reference compound] | – | – | – | – | pIC50 LdtMt2 (LdtMt2 [1]): 6.54 ± 0.01
CN(C)c1cc[n+](C#N)cc1 [Compound 43, 1-cyano-4-dimethylaminopyridinium tetrafluoroborate, reference compound] | – | – | – | – | IC50 (LdtMt2 [1]; pIC50 LdtMt2): 5.01 µM
N#Cn1c(N2CCOCC2)nc2ccccc21 [Compound 28] | – | – | – | – | pIC50 BlaC (BlaC; [6]): < 4.0; LE (ligand efficiency) (LdtMt2 [1]): 0.66; ΔTm: difference in melting point of LdtMt2 relative to unreacted LdtMt2 (43.8 °C) (LdtMt2 [2]): -1.5; Tm: melting point of LdtMt2 after pre-incubation with the compound (LdtMt2 [2]; pH 7.5, in °C (unit assumed)): 42.3 ± 0.09
C[C@@H](O)[C@H]1C(=O)N2C(C(=O)[O-])=C(SC3Cn4cnc[n+]4C3)[C@H](C)[C@H]12 (some centres unmarked) [Biapenem, reference compound] | 3090 | 479 | 2.88 | 79.4 µM | –
O=c1c2ccccc2[se]n1-c1ccccc1 [Ebselen] | 1510 | 302 | 0.214 | – | –
Cc1ccccc1NC(=O)C=CC(N)=O [Compound 14] | – | – | – | – | pIC50 BlaC (BlaC; [6]): < 4.0; LE (ligand efficiency) (LdtMt2 [1]): 0.75; ΔTm: difference in melting point of LdtMt2 relative to unreacted LdtMt2 (43.8 °C) (LdtMt2 [2]): +1.1; Tm: melting point of LdtMt2 after pre-incubation with the compound (LdtMt2 [2]; pH 7.5, in °C (unit assumed)): 44.9 ± 0.09
CN(C)C(=S)SSC(=S)N(C)C [Thiram, reference compound] | > 100000 | – | 0.17 | 0.158 µM | –
N#Cn1nnc2ccccc21 [Compound 42, reference compound] | – | – | – | – | pIC50 LdtMt2 (LdtMt2 [1]): 6.02 ± 0.05
O=C(NNC(=O)[C@@H]1CC[C@@H]2CN1C(=O)N2OS(=O)(=O)O)[C@@H]1CCCNC1 [Zidebactam, reference compound] | 70800 | 7240 | 13.2 | 100 µM | –
CC(C)(O/N=C(\C(=O)N[C@@H]1C(=O)N2C(C(=O)[O-])=C(C[n+]3ccccc3)CS[C@H]12)c1csc(N)n1)C(=O)O [Ceftazidime] | 39800 | 12000 | – | > 100 µM | –
C[C@@H](O)[C@H]1C(=O)N2C(C(=O)O)=C([C@H]3CCCO3)S[C@H]12 [Faropenem] | 447 | 468 | – | – | –
Cn1c(SCC2=C(C(=O)O)N3C(=O)[C@@H](NC(=O)COc4ccccc4)[C@H]3SC2)n[nH]c1=O [Compound 19] | – | – | – | – | IC50 (BlaC; Table S5 HTS hits, 30 minute inhibitor pre-incubation, two independent repeats, read-out: pIC50 BlaC (converted)): > 100000 nM; LE (ligand efficiency) (LdtMt2 [1]; Table S5, for LdtMt2): 0.35; IC50 (LdtMt2 [1]; Table S5 HTS hits, 30 minute inhibitor pre-incubation, two independent repeats, read-out: pIC50 LdtMt2 (converted)): 2.4 µM and 2.4 to 2.82 µM; Tm: melting point of LdtMt2 after pre-incubation with the compound (LdtMt2 [2]; 5 µM LdtMt2, 500 µM inhibitor, SYPRO Orange, 50 mM Tris pH 7.5): 42.9 ± 0.09 °C; ΔTm at 500 µM (LdtMt2 [2]; read-out: ΔTm: difference in melting point of LdtMt2 relative to unreacted LdtMt2 (43.8 °C)): -0.9 °C
CO/N=C(\C(=O)N[C@@H]1C(=O)N2C(C(=O)O)=C(COC(C)=O)CS[C@H]12)c1csc(N)n1 [Cefotaxime, reference compound] | > 100000 | – | – | > 100 µM | –

Structure (SMILES) | IC50 (BlaC; [3]) [nM] | IC50 (BlaC; [4]) [nM] | IC50 (LdtMt2 [1]; [5]) [µM] | IC50 (LdtMt2 [1]; pIC50 LdtMt2 (mean ± SD)) | other results
N#Cn1c(N2CCSCC2)nc2ccccc21 [Compound 27] | – | – | – | – | pIC50 BlaC (BlaC; [6]): < 4.0; LE (ligand efficiency) (LdtMt2 [1]): 0.66; ΔTm: difference in melting point of LdtMt2 relative to unreacted LdtMt2 (43.8 °C) (LdtMt2 [2]): -1.3; Tm: melting point of LdtMt2 after pre-incubation with the compound (LdtMt2 [2]; pH 7.5, in °C (unit assumed)): 42.5 ± 0.09
O=C(NC1CCNCC1)[C@@H]1CC[C@@H]2CN1C(=O)N2OS(=O)(=O)O [Relebactam] | 33100 | 3980 | – | > 100 µM | –
CO/N=C(\C(=O)N[C@@H]1C(=O)N2C(C(=O)O)=C(CSC(=O)c3ccco3)CS[C@H]12)c1csc(N)n1 [Ceftiofur, reference compound] | > 100000 | – | – | > 100 µM | –
NC(=O)CI [Iodoacetamide, reference compound] | – | – | – | – | pIC50 BlaC (mean ± SD) (BlaC; [7]): < 4.0; pIC50 LdtMt2 (mean ± SD) (LdtMt2 [1]): 5.8 ± 0.03; pIC50 LdtMt2 (mean ± SD) (LdtMt2 [1]; [8]): 6.05 ± 0.03
CNC(C)C(=O)NC1CCN(c2ccc(N3CCCC3)cc2C#N)C1 (centres unmarked) [Compound 38] | – | – | – | – | pIC50 BlaC (BlaC; [6]): < 4.0; LE (ligand efficiency) (LdtMt2 [1]): 0.45; ΔTm: difference in melting point of LdtMt2 relative to unreacted LdtMt2 (43.8 °C) (LdtMt2 [2]): -1.0; Tm: melting point of LdtMt2 after pre-incubation with the compound (LdtMt2 [2]; pH 7.5, in °C (unit assumed)): 42.8 ± 0.00
Cc1onc(-c2ccccc2)c1C(=O)N[C@@H]1C(=O)N2[C@@H]1SC(C)(C)[C@@H]2C(=O)O [Oxacillin, reference compound] | 158 | 67.6 | 6.03 | 63.1 µM | –
CC1(C)S[C@@H]2[C@H](NC(=O)[C@H](C(=O)O)c3ccsc3)C(=O)N2[C@H]1C(=O)O [Ticarcillin, reference compound] | 11700 | 14500 | 44.7 | > 100 µM | –
CC(=N)N1CC[C@H](SC2=C(C(=O)O)N3C(=O)[C@H]([C@@H](C)O)[C@H]3C2)C1 [Panipenem, reference compound] | 166 | 93.3 | 1.23 | 0.316 µM | –
C[C@@H](O)[C@H]1C(=O)N2C(C(=O)O)=C(S[C@@H]3CN[C@H](C(=O)N(C)C)C3)[C@H](C)[C@H]12 [Meropenem, reference compound] | 141 | 40.7 | 1.35 | 10 µM | –
N#CSc1ccc([N+](=O)[O-])c(C(=O)O)c1 [Compound 44, 2-nitro-5-thiocyanobenzoic acid, reference compound] | – | – | – | – | IC50 (LdtMt2 [1]; Table S10 known cyanating compounds, read-out: pIC50 LdtMt2 (converted)): 1.45 µM
C[C@@H](O)[C@H]1C(=O)N2C(C(=O)O)=C(S[C@@H]3CN[C@H](CNS(N)(=O)=O)C3)[C@H](C)[C@H]12 [Doripenem, reference compound] | 41.7 | 14.1 | – | 5.01 µM and 1.7 µM | –
CCC(C)SSc1ncc[nH]1 (centres unmarked) [PX-12, reference compound] | – | – | – | – | pIC50 BlaC (mean ± SD) (BlaC; [7]): < 4.0; pIC50 LdtMt2 (mean ± SD) (LdtMt2 [1]): 5.9 ± 0.01 and 6.09 ± 0.03
Cc1onc(-c2c(F)cccc2Cl)c1C(=O)N[C@@H]1C(=O)N2[C@@H]1SC(C)(C)[C@@H]2C(=O)O [Flucloxacillin, reference compound] | 135 | 77.6 | 1.05 | 25.1 µM | –
Cc1ccc(C=CC(=O)N2CC(=O)Nc3ccccc32)o1 [Compound 10] | – | – | – | – | LE (ligand efficiency) (LdtMt2 [1]): 0.54
O=[Se](O)c1ccccc1 [Benzeneseleninic acid, reference compound] | > 100000 | – | 3.55 | 10 µM | –
C[C@@H](O)[C@H]1C(=O)N2C(C(=O)O)=C(S[C@H]3CC[S@@+]([O-])C3)S[C@H]12 [Sulopenem, reference compound] | – | – | – | – | pIC50 BlaC (mean ± SD) (BlaC; [7]): 6.60 ± 0.12; pIC50 BlaC (mean ± SD) (BlaC; Table S4 HTS validation, 30 minutes inhibitor pre-incubation, n=8): 6.86 ± 0.02; pIC50 LdtMt2 (mean ± SD) (LdtMt2 [1]): 6.2 ± 0.03; pIC50 LdtMt2 (mean ± SD) (LdtMt2 [1]; [8]): 6.35 ± 0.02
